We go through 1 compound from article PMC5218480 (PLoS ONE, 2017).

In this experiment the test system is MV-4-11 cells. The experiment can be described thus: Gene expression microarray analysis (Affymetrix PrimeView) and GSEA. Type of experiment: cell-based, human. Also on record: RFU PODN (11730768_x_at) / Fold change /veh PODN (11730768_x_at) / RFU LINC00158 (11744669_a_at) / Fold change /veh LINC00158 (11744669_a_at) / RFU DUSP10 (11751237_a_at) / Fold change /veh DUSP10 (11751237_a_at) / RFU ID3 (11757404_x_at) / Fold change /veh ID3 (11757404_x_at) / RFU PLEKHG5 (11737974_s_at) / Fold change /veh PLEKHG5 (11737974_s_at) / RFU LRRC4B (11730491_at) / Fold change /veh LRRC4B (11730491_at) / RFU GIMAP4 (11747438_a_at) / Fold change /veh GIMAP4 (11747438_a_at) / RFU KRT8 (11758183_x_at) / Fold change /veh KRT8 (11758183_x_at) / RFU CNN1 (11734310_a_at) / Fold change /veh CNN1 (11734310_a_at) / RFU VPS37D (11726825_at) / Fold change /veh VPS37D (11726825_at) / RFU C10orf10 (11716522_x_at) / Fold change /veh C10orf10 (11716522_x_at) / RFU KIR2DL2 /// KIR2DL4 /// KIR2DL5A /// KIR2DL5B /// KIR2DS1 /// KIR2DS2 /// KIR2DS3 /// KIR2DS4 /// KIR3DL3 /// KIR3DL3 /// KIR3DS1 (11738374_at) / Fold change /veh KIR2DL2 /// KIR2DL4 /// KIR2DL5A /// KIR2DL5B /// KIR2DS1 /// KIR2DS2 /// KIR2DS3 /// KIR2DS4 /// KIR3DL3 /// KIR3DL3 /// KIR3DS1 (11738374_at) / RFU C1QL1 (11718748_at) / Fold change /veh C1QL1 (11718748_at) / RFU TMPRSS4 (11747572_a_at) / Fold change /veh TMPRSS4 (11747572_a_at) / RFU HAMP (11756126_x_at) / Fold change /veh HAMP (11756126_x_at) / RFU RNFT2 (11725882_a_at) / Fold change /veh RNFT2 (11725882_a_at) / RFU NR4A2 (11747474_a_at) / Fold change /veh NR4A2 (11747474_a_at) / RFU ABCC12 (11746883_a_at) / Fold change /veh ABCC12 (11746883_a_at) / RFU TMEM136 (11760407_x_at) / Fold change /veh TMEM136 (11760407_x_at) / RFU CLDN22 /// WWC2 (11732394_at) / Fold change /veh CLDN22 /// WWC2 (11732394_at) / RFU HLA-DPB1 (11760878_x_at) / Fold change /veh HLA-DPB1 (11760878_x_at) / RFU SPINT1 (11716480_a_at) / Fold change /veh SPINT1 (11716480_a_at) / RFU GAP43 (11754022_s_at) / Fold change /veh GAP43 (11754022_s_at) / RFU A4GNT (11735810_at) / Fold change /veh A4GNT (11735810_at) / RFU PRB3 (11715151_x_at) / Fold change /veh PRB3 (11715151_x_at) / RFU TUBB4B (11761932_at) / Fold change /veh TUBB4B (11761932_at) / RFU CAPN14 (11732068_a_at) / Fold change /veh CAPN14 (11732068_a_at) / RFU TMCC2 (11721928_a_at) / Fold change /veh TMCC2 (11721928_a_at) / RFU IRGQ (11745062_a_at) / Fold change /veh IRGQ (11745062_a_at) / RFU FAM174B (11720279_a_at) / Fold change /veh FAM174B (11720279_a_at) / RFU TMPRSS4 (11748680_a_at) / Fold change /veh TMPRSS4 (11748680_a_at) / RFU FAM212B (11763350_a_at) / Fold change /veh FAM212B (11763350_a_at) / RFU PLEKHG5 (11743358_a_at) / Fold change /veh PLEKHG5 (11743358_a_at) / RFU ZSCAN30 (11745921_a_at) / Fold change /veh ZSCAN30 (11745921_a_at) / RFU CMKLR1 (11741424_a_at) / Fold change /veh CMKLR1 (11741424_a_at) / RFU LOC101060620 /// MAPK8IP1 (11723275_at) / Fold change /veh LOC101060620 /// MAPK8IP1 (11723275_at) / RFU SPTSSB (11747773_x_at) / Fold change /veh SPTSSB (11747773_x_at) / RFU PRSS12 (11739890_at) / Fold change /veh PRSS12 (11739890_at) / RFU BIN1 (11741810_x_at) / Fold change /veh BIN1 (11741810_x_at) / RFU WNT11 (11732464_a_at) / Fold change /veh WNT11 (11732464_a_at) / RFU C10orf10 (11716521_a_at) / Fold change /veh C10orf10 (11716521_a_at) / RFU C5orf56 (11738089_at) / Fold change /veh C5orf56 (11738089_at) / RFU CYB561 (11721691_x_at) / Fold change /veh CYB561 (11721691_x_at) / RFU ANKRD19P (11752326_a_at) / Fold change /veh ANKRD19P (11752326_a_at) / RFU OR2T12 /// OR2T33 /// OR2T8 (11738714_s_at) / Fold change /veh OR2T12 /// OR2T33 /// OR2T8 (11738714_s_at) / RFU VCAN (11748164_a_at) / Fold change /veh VCAN (11748164_a_at) / RFU JSRP1 (11732532_at) / Fold change /veh JSRP1 (11732532_at) / RFU KRTAP10-11 (11738290_x_at) / Fold change /veh KRTAP10-11 (11738290_x_at) / RFU MYO3A (11730013_a_at) / Fold change /veh MYO3A (11730013_a_at) / RFU EBF3 (11725865_a_at) / Fold change /veh EBF3 (11725865_a_at) / RFU CAMK2N1 (11719241_x_at) / Fold change /veh CAMK2N1 (11719241_x_at) / RFU C5orf56 (11738088_a_at) / Fold change /veh C5orf56 (11738088_a_at) / RFU OLFML3 (11715873_a_at) / Fold change /veh OLFML3 (11715873_a_at) / RFU LOC100653217 /// NTM (11731650_a_at) / Fold change /veh LOC100653217 /// NTM (11731650_a_at) / RFU MAPK11 (11762145_a_at) / Fold change /veh MAPK11 (11762145_a_at) / RFU FIZ1 (11724087_x_at) / Fold change /veh FIZ1 (11724087_x_at) / RFU OASL (11726364_x_at) / Fold change /veh OASL (11726364_x_at) / RFU SOX15 (11748057_x_at) / Fold change /veh SOX15 (11748057_x_at) / RFU CD79A (11719716_a_at) / Fold change /veh CD79A (11719716_a_at) / RFU HIST1H1D (11736915_at) / Fold change /veh HIST1H1D (11736915_at) / RFU CASKIN2 (11723855_a_at) / Fold change /veh CASKIN2 (11723855_a_at) / RFU LOC730098 (11760151_x_at) / Fold change /veh LOC730098 (11760151_x_at) / RFU OR4N2 (11742367_at) / Fold change /veh OR4N2 (11742367_at) / RFU PRRT2 (11749266_a_at) / Fold change /veh PRRT2 (11749266_a_at) / RFU SNX32 (11753110_a_at) / Fold change /veh SNX32 (11753110_a_at) / RFU CDHR5 (11726645_a_at) / Fold change /veh CDHR5 (11726645_a_at) / RFU RCAN1 (11760418_a_at) / Fold change /veh RCAN1 (11760418_a_at) / RFU FAM167A (11723789_a_at) / Fold change /veh FAM167A (11723789_a_at) / RFU FAM26E (11764081_at) / Fold change /veh FAM26E (11764081_at) / RFU ISYNA1 (11749810_s_at) / Fold change /veh ISYNA1 (11749810_s_at) / RFU ACY1 (11761880_at) / Fold change /veh ACY1 (11761880_at) / RFU 11764098_at / Fold change /veh 11764098_at / RFU SAMD14 (11745864_x_at) / Fold change /veh SAMD14 (11745864_x_at) / RFU NPB (11741838_a_at) / Fold change /veh NPB (11741838_a_at) / RFU TMPRSS6 (11731388_a_at) / Fold change /veh TMPRSS6 (11731388_a_at) / RFU KRTAP10-2 (11738614_at) / Fold change /veh KRTAP10-2 (11738614_at) / RFU ARHGAP8 /// PRR5-ARHGAP8 (11727945_x_at) / Fold change /veh ARHGAP8 /// PRR5-ARHGAP8 (11727945_x_at) / RFU KRTAP5-7 /// NADSYN1 (11734609_at) / Fold change /veh KRTAP5-7 /// NADSYN1 (11734609_at) / RFU RASL12 (11751679_a_at) / Fold change /veh RASL12 (11751679_a_at) / RFU CDKN2B (11736163_a_at) / Fold change /veh CDKN2B (11736163_a_at) / RFU PRF1 (11729649_at) / Fold change /veh PRF1 (11729649_at) / RFU, ZNF638 /// ZNF638-IT1 / Fold change vs veh, ZNF638 /// ZNF638-IT1 / RFU, PANK3 / Fold change vs veh, PANK3 / RFU, SH3YL1 / Fold change vs veh, SH3YL1 / RFU, ZEB2 / Fold change vs veh, ZEB2 / RFU, NRIP1 / Fold change vs veh, NRIP1 / RFU, PTTG1IP / Fold change vs veh, PTTG1IP / RFU, CAPN2 / Fold change vs veh, CAPN2 / RFU, MED14 / Fold change vs veh, MED14 / RFU, SNORA58 / Fold change vs veh, SNORA58 / RFU, C1orf63 / Fold change vs veh, C1orf63 / RFU, LRRFIP1 / Fold change vs veh, LRRFIP1 / RFU, NDUFAF7 / Fold change vs veh, NDUFAF7 / RFU, SLC12A2 / Fold change vs veh, SLC12A2 / RFU, IBTK / Fold change vs veh, IBTK / RFU, ESF1 / Fold change vs veh, ESF1 / Fold change vs veh, TMEM50B / RFU, TAOK1 / Fold change vs veh, TAOK1 / RFU, ACBD3 / Fold change vs veh, ACBD3 / RFU, TMA16 / Fold change vs veh, TMA16 / RFU, RWDD3 / Fold change vs veh, RWDD3 / RFU, BCAT1 / Fold change vs veh, BCAT1 / RFU, EDEM3 / Fold change vs veh, EDEM3 / RFU, TMEM33 / Fold change vs veh, TMEM33 / RFU, WDR75 / Fold change vs veh, WDR75 / RFU, AHCTF1 / Fold change vs veh, AHCTF1 / RFU, TFRC / Fold change vs veh, TFRC / RFU, ZDHHC17 / Fold change vs veh, ZDHHC17 / RFU, NOM1 / Fold change vs veh, NOM1 / RFU, ARL8B / Fold change vs veh, ARL8B / RFU, ZBTB11 / Fold change vs veh, ZBTB11 / RFU, TAMM41 / Fold change vs veh, TAMM41 / RFU, KIAA1704 /// LOC100996395 / Fold change vs veh, KIAA1704 /// LOC100996395 / RFU, ING1 / Fold change vs veh, ING1 / RFU, TRMT61B / Fold change vs veh, TRMT61B / RFU, FUBP3 / Fold change vs veh, FUBP3 / RFU, TP53 / Fold change vs veh, TP53 / RFU, TNKS2 / Fold change vs veh, TNKS2 / RFU, ZFP14 / Fold change vs veh, ZFP14 / RFU, ACTR2 / Fold change vs veh, ACTR2 / RFU, PPP3R1 / Fold change vs veh, PPP3R1 / RFU, PIK3R1 / Fold change vs veh, PIK3R1 / RFU, HNRNPA1 / Fold change vs veh, HNRNPA1 / RFU, RNF170 / Fold change vs veh, RNF170 / RFU, ZNF28 / Fold change vs veh, ZNF28 / RFU, RNGTT / Fold change vs veh, RNGTT / RFU, OGT / Fold change vs veh, OGT / RFU, BRD1 / Fold change vs veh, BRD1 / RFU, MARS / Fold change vs veh, MARS / RFU, ZNF655 / Fold change vs veh, ZNF655 / RFU, FAHD1 / Fold change vs veh, FAHD1 / RFU, BDP1 / Fold change vs veh, BDP1 / RFU, LRRCC1 / Fold change vs veh, LRRCC1 / RFU, ARID1A / Fold change vs veh, ARID1A / RFU, ZNF146 / Fold change vs veh, ZNF146 / RFU, ZNF330 / Fold change vs veh, ZNF330 / RFU, GPN3 / Fold change vs veh, GPN3 / RFU, C9orf123 / Fold change vs veh, C9orf123 / RFU, N4BP2L2 / Fold change vs veh, N4BP2L2 / RFU, ARFIP1 / Fold change vs veh, ARFIP1 / RFU, FAM179B / Fold change vs veh, FAM179B / RFU, BCL10 / Fold change vs veh, BCL10 / RFU, UHRF1BP1L / Fold change vs veh, UHRF1BP1L / RFU, BET1 / Fold change vs veh, BET1 / RFU, CNOT2 / Fold change vs veh, CNOT2 / RFU, ZNF268 / Fold change vs veh, ZNF268 / Fold change vs veh, ZNF507 / RFU, DGCR2 / Fold change vs veh, DGCR2 / RFU, WDSUB1 / Fold change vs veh, WDSUB1 / Fold change vs veh, HSP90B1 /// MIR3652 / RFU, ADSS / Fold change vs veh, ADSS / RFU, GK / Fold change vs veh, GK / RFU, ZNF148 / Fold change vs veh, ZNF148 / RFU, TAF9 / Fold change vs veh, TAF9 / RFU, SLC1A5 / Fold change vs veh, SLC1A5 / RFU, SLMO2 / Fold change vs veh, SLMO2 / RFU, ABCC4 / Fold change vs veh, ABCC4 / RFU, LOC101060439 /// RAP1B / Fold change vs veh, LOC101060439 /// RAP1B / RFU, RFX7 / Fold change vs veh, RFX7 / RFU, GTPBP10 / Fold change vs veh, GTPBP10 / RFU, CNEP1R1 / Fold change vs veh, CNEP1R1 / RFU, BIVM-ERCC5 /// ERCC5 / Fold change vs veh, BIVM-ERCC5 /// ERCC5 / RFU, ILF3 / Fold change vs veh, ILF3 / RFU 11762660_at / Fold change /veh 11762660_at / RFU VCAN (11757783_s_at) / Fold change /veh VCAN (11757783_s_at) / RFU DDX43 (11728927_at) / Fold change /veh DDX43 (11728927_at) / RFU KRT8 (11758188_x_at) / Fold change /veh KRT8 (11758188_x_at) / RFU NKD1 (11759106_at) / Fold change /veh NKD1 (11759106_at) / RFU SRD5A1 (11742802_a_at) / Fold change /veh SRD5A1 (11742802_a_at) / RFU TPSAB1 /// TPSB2 (11721975_s_at) / Fold change /veh TPSAB1 /// TPSB2 (11721975_s_at) / RFU GSTM3 (11746129_a_at) / Fold change /veh GSTM3 (11746129_a_at) / RFU IL23R (11737362_x_at) / Fold change /veh IL23R (11737362_x_at) / RFU TMEM51 (11727254_a_at) / Fold change /veh TMEM51 (11727254_a_at) / RFU PIWIL2 (11732686_x_at) / Fold change /veh PIWIL2 (11732686_x_at) / RFU ORM1 (11744905_x_at) / Fold change /veh ORM1 (11744905_x_at) / RFU CCDC152 (11743942_at) / Fold change /veh CCDC152 (11743942_at) / RFU ECM1 (11717891_a_at) / Fold change /veh ECM1 (11717891_a_at) / RFU IL23R (11748794_a_at) / Fold change /veh IL23R (11748794_a_at) / RFU TNFAIP8L3 (11732012_x_at) / Fold change /veh TNFAIP8L3 (11732012_x_at) / RFU MBOAT4 (11741988_at) / Fold change /veh MBOAT4 (11741988_at) / RFU 11764193_at / Fold change /veh 11764193_at / RFU TMEM53 (11763286_at) / Fold change /veh TMEM53 (11763286_at) / RFU MAGEB2 (11727129_at) / Fold change /veh MAGEB2 (11727129_at) / RFU TMEM200A (11744735_a_at) / Fold change /veh TMEM200A (11744735_a_at) / RFU CCDC152 (11751479_a_at) / Fold change /veh CCDC152 (11751479_a_at) / RFU FAM211A (11726209_a_at) / Fold change /veh FAM211A (11726209_a_at) / RFU RGS16 (11746705_a_at) / Fold change /veh RGS16 (11746705_a_at) / RFU VCAN (11755009_s_at) / Fold change /veh VCAN (11755009_s_at) / RFU RHOB (11743442_s_at) / Fold change /veh RHOB (11743442_s_at) / RFU RGS16 (11720943_a_at) / Fold change /veh RGS16 (11720943_a_at) / RFU RGS16 (11720944_at) / Fold change /veh RGS16 (11720944_at) / RFU, VPS4B / Fold change vs veh, VPS4B / RFU, CREB1 / Fold change vs veh, CREB1 / RFU, DNAJC13 / Fold change vs veh, DNAJC13 / RFU, GNAQ / Fold change vs veh, GNAQ / RFU, CDK5R1 / Fold change vs veh, CDK5R1 / RFU, ZRANB3 / Fold change vs veh, ZRANB3 / RFU, CUL4A / Fold change vs veh, CUL4A / RFU, CCNY / Fold change vs veh, CCNY / RFU, UFL1 / Fold change vs veh, UFL1 / RFU, COG3 / Fold change vs veh, COG3 / RFU, DIAPH2 / Fold change vs veh, DIAPH2 / RFU, SKA2 / Fold change vs veh, SKA2 / RFU, AFF3 / Fold change vs veh, AFF3 / RFU, LMF1 / Fold change vs veh, LMF1 / RFU, IPO11 / Fold change vs veh, IPO11 / RFU, DFFB / Fold change vs veh, DFFB / RFU, FOXP1 / Fold change vs veh, FOXP1 / RFU, CARD8 / Fold change vs veh, CARD8 / RFU, STRN3 / Fold change vs veh, STRN3 / RFU, ADK / Fold change vs veh, ADK / RFU, RASSF2 / Fold change vs veh, RASSF2 / RFU, WIPF1 / Fold change vs veh, WIPF1 / RFU, LARP1B / Fold change vs veh, LARP1B / RFU, RASA1 / Fold change vs veh, RASA1 / RFU, RB1 / Fold change vs veh, RB1 / RFU, PPFIA1 / Fold change vs veh, PPFIA1 / RFU, MAT2A / Fold change vs veh, MAT2A / RFU, CCT5 / Fold change vs veh, CCT5 / RFU, WDR92 / Fold change vs veh, WDR92 / RFU, CUX1 / Fold change vs veh, CUX1 / RFU, TTC7A / Fold change vs veh, TTC7A / RFU, TMEM135 / Fold change vs veh, TMEM135 / RFU, DEPTOR / Fold change vs veh, DEPTOR / RFU, CPM / Fold change vs veh, CPM / RFU, DNAJB6 / Fold change vs veh, DNAJB6 / RFU, CACNA2D3 / Fold change vs veh, CACNA2D3 / RFU, DTX4 / Fold change vs veh, DTX4 / RFU, TFCP2 / Fold change vs veh, TFCP2 / RFU, GMCL1 /// GMCL1P1 / Fold change vs veh, GMCL1 /// GMCL1P1 / RFU, AEBP2 / Fold change vs veh, AEBP2 / RFU, SNHG1 /// SNORD22 /// SNORD25 /// SNORD26 /// SNORD27 /// SNORD28 /// SNORD29 /// SNORD31 / Fold change vs veh, SNHG1 /// SNORD22 /// SNORD25 /// SNORD26 /// SNORD27 /// SNORD28 /// SNORD29 /// SNORD31 / Fold change (Aza/veh), C12orf56 (ProbeSet 11735607_a_at) / Fold change (ACY-1035/veh), C12orf56 (ProbeSet 11735607_a_at) / Fold change (Aza/veh), FGFR1OP (ProbeSet 11751329_s_at) / Fold change (ACY-1035/veh), FGFR1OP (ProbeSet 11751329_s_at) / Fold change (Aza/veh), VPS36 (ProbeSet 11739960_a_at) / Fold change (ACY-1035/veh), VPS36 (ProbeSet 11739960_a_at) / RFU SYPL1 (11715823_x_at) / Fold change /veh SYPL1 (11715823_x_at) / RFU IGFBP7 (11715501_s_at) / Fold change /veh IGFBP7 (11715501_s_at) / RFU REEP3 (11722064_at) / Fold change /veh REEP3 (11722064_at) / RFU IGLL1 (11728026_x_at) / Fold change /veh IGLL1 (11728026_x_at): dose or concentration left out as unconfirmed. As to conditions: MV-4-11 cells, 48 hours.

SMILES strings stand for the structures.

Take `Nc1ccc(-c2cccs2)cc1NC(=O)c1ccc2c(c1)cc(C1CC1)n2CCN1CCOCC1` [ACY-1035]: the “Fold change /veh PLEKHG5 (11743358_a_at)” value is listed as 1.02.
